Organism: Rattus norvegicus
Assay: Open TG-GATES - Regimen: Single
Type: toxicity, organism-based, Sprague-Dawley
Parameters: regimen Single, gender Male, age 6 weeks
Details: in vivo, po, 30 mg/kg, route gavage, dose level Middle; for APTT / Bas / Eos / Fbg / Hb / Ht / Lym / MCH / MCHC / MCV / Mono / Neu / PT / Plat / RBC / Ret / WBC: tissue Blood; for KIDNEY_L / KIDNEY_R / KIDNEY_TOTAL: tissue Kidney; for LIVER: tissue Liver; for A/G / ALP / ALT / AST / BUN / CRE / Ca / Cl / DBIL / GLC / IP / K / LDH / Na / PL / RALB / TBIL / TC / TG / TP / gamma-GTP: tissue Plasma

For `CCCc1cc(=O)[nH]c(=S)[nH]1` [PROPYLTHIOURACIL], the TERMINAL_BW (3 h) was 179.8 g, the APTT (3 h) was 16 s and the Bas (3 h) was 0%. For the same compound, the Eos (3 h) was 1%, the Fbg (3 h) was 211.4 mg/dL and the Hb (3 h) was 13.2 g/dL. It also gave a Ht (3 h) of 40%, a Lym (3 h) of 80.2% and an MCH (3 h) of 22.2 pg. For the same compound, the MCHC (3 h) was 33%, the MCV (3 h) was 67.2 fL and the Mono (3 h) was 5.6%. For the same compound, the Neu (3 h) was 13.6%, the PT (3 h) was 12.8 s and the Plat (3 h) was 100.4 x10_4/uL. For the same compound, the RBC (3 h) was 595.4 x10_4/ul, the Ret (3 h) was 10.1% and the WBC (3 h) was 101.6 x10_2/uL. It also gave a KIDNEY_L (3 h) of 0.8 g, a KIDNEY_R (3 h) of 0.8 g and a KIDNEY_TOTAL (3 h) of 1.7 g. For the same compound, the LIVER (3 h) was 8.4 g, the A/G (3 h) was 2 and the ALP (3 h) was 1017.6 IU/L. The ALT (3 h) was 32.6 IU/L, the AST (3 h) was 65.4 IU/L and the BUN (3 h) was 12 mg/dL. It also gave a CRE (3 h) of 0.4 mg/dL, a Ca (3 h) of 11.2 mg/dL and a Cl (3 h) of 105.2 meq/L. For the same compound, the DBIL (3 h) was 0.042 mg/dL, the GLC (3 h) was 193.6 mg/dL and the IP (3 h) was 10.8 mg/dL. It also gave a K (3 h) of 4.4 meq/L, an LDH (3 h) of 86.6 IU/L and a Na (3 h) of 138.2 meq/L. It also gave a PL (3 h) of 135 mg/dL, an RALB (3 h) of 3.6 g/dL and a TBIL (3 h) of 0.3 mg/dL. It also gave a TC (3 h) of 77.2 mg/dL, a TG (3 h) of 30.6 mg/dL and a TP (3 h) of 5.5 g/dL. It also gave a gamma-GTP (3 h) of 1.2 IU/L, a TERMINAL_BW (6 h) of 177.6 g and an APTT (6 h) of 16.2 s. It also gave a Bas (6 h) of 0%, an Eos (6 h) of 1% and a Fbg (6 h) of 208.8 mg/dL. For the same compound, the Hb (6 h) was 13.2 g/dL, the Ht (6 h) was 39.3% and the Lym (6 h) was 77.2%. The MCH (6 h) was 22.2 pg, the MCHC (6 h) was 33.5% and the MCV (6 h) was 66.3 fL. It also gave a Mono (6 h) of 6.8%, a Neu (6 h) of 15.2% and a PT (6 h) of 12.7 s. For the same compound, the Plat (6 h) was 107.3 x10_4/uL, the RBC (6 h) was 593.4 x10_4/ul and the Ret (6 h) was 10.5%. It also gave a WBC (6 h) of 83.3 x10_2/uL, a KIDNEY_L (6 h) of 0.8 g and a KIDNEY_R (6 h) of 0.9 g. For the same compound, the KIDNEY_TOTAL (6 h) was 1.7 g, the LIVER (6 h) was 8.1 g and the A/G (6 h) was 2. It also gave an ALP (6 h) of 892.6 IU/L, an ALT (6 h) of 31.8 IU/L and an AST (6 h) of 63.8 IU/L. For the same compound, the BUN (6 h) was 12.8 mg/dL, the CRE (6 h) was 0.5 mg/dL and the Ca (6 h) was 11.2 mg/dL. The Cl (6 h) was 105 meq/L, the DBIL (6 h) was 0.062 mg/dL and the GLC (6 h) was 182 mg/dL. For the same compound, the IP (6 h) was 10.8 mg/dL, the K (6 h) was 4.9 meq/L and the LDH (6 h) was 89.6 IU/L. The Na (6 h) was 138.4 meq/L, the PL (6 h) was 127.4 mg/dL and the RALB (6 h) was 3.7 g/dL. The TBIL (6 h) was 0.3 mg/dL, the TC (6 h) was 70.4 mg/dL and the TG (6 h) was 36.4 mg/dL. It also gave a TP (6 h) of 5.5 g/dL, a gamma-GTP (6 h) of 1.8 IU/L and a TERMINAL_BW (9 h) of 178.7 g. It also gave an APTT (9 h) of 15.7 s, a Bas (9 h) of 0% and an Eos (9 h) of 1.6%. It also gave a Fbg (9 h) of 216 mg/dL, a Hb (9 h) of 13.3 g/dL and a Ht (9 h) of 40%. It also gave a Lym (9 h) of 73.4%, an MCH (9 h) of 22.1 pg and an MCHC (9 h) of 33.2%. It also gave an MCV (9 h) of 66.6 fL, a Mono (9 h) of 8.2% and a Neu (9 h) of 17%. The PT (9 h) was 12.7 s, the Plat (9 h) was 102.7 x10_4/uL and the RBC (9 h) was 601.2 x10_4/ul. For the same compound, the Ret (9 h) was 9.8%, the WBC (9 h) was 64.5 x10_2/uL and the KIDNEY_L (9 h) was 0.9 g. For the same compound, the KIDNEY_R (9 h) was 0.9 g, the KIDNEY_TOTAL (9 h) was 1.7 g and the LIVER (9 h) was 7.5 g. For the same compound, the A/G (9 h) was 1.9, the ALP (9 h) was 878.2 IU/L and the ALT (9 h) was 30.4 IU/L. For the same compound, the AST (9 h) was 61.6 IU/L, the BUN (9 h) was 12.2 mg/dL and the CRE (9 h) was 0.5 mg/dL. It also gave a Ca (9 h) of 10.5 mg/dL, a Cl (9 h) of 106.4 meq/L and a DBIL (9 h) of 0 mg/dL. The GLC (9 h) was 194.2 mg/dL, the IP (9 h) was 10.6 mg/dL and the K (9 h) was 4.7 meq/L. The LDH (9 h) was 92.4 IU/L, the Na (9 h) was 138.8 meq/L and the PL (9 h) was 131 mg/dL. For the same compound, the RALB (9 h) was 3.6 g/dL, the TBIL (9 h) was 0.5 mg/dL and the TC (9 h) was 77.6 mg/dL. It also gave a TG (9 h) of 33.8 mg/dL, a TP (9 h) of 5.5 g/dL and a gamma-GTP (9 h) of 1 IU/L. It also gave a TERMINAL_BW (24 h) of 189 g, an APTT (24 h) of 16 s and a Bas (24 h) of 0%. It also gave an Eos (24 h) of 1%, a Fbg (24 h) of 206.6 mg/dL and a Hb (24 h) of 13.6 g/dL. It also gave a Ht (24 h) of 40.7%, a Lym (24 h) of 78% and an MCH (24 h) of 21.9 pg. It also gave an MCHC (24 h) of 33.5%, an MCV (24 h) of 65.2 fL and a Mono (24 h) of 9%. For the same compound, the Neu (24 h) was 12.4%, the PT (24 h) was 12.3 s and the Plat (24 h) was 101.4 x10_4/uL. It also gave an RBC (24 h) of 623.4 x10_4/ul, a Ret (24 h) of 9.1% and a WBC (24 h) of 101.7 x10_2/uL. It also gave a KIDNEY_L (24 h) of 0.9 g, a KIDNEY_R (24 h) of 0.9 g and a KIDNEY_TOTAL (24 h) of 1.7 g. The LIVER (24 h) was 9.5 g, the A/G (24 h) was 2 and the ALP (24 h) was 911.4 IU/L. The ALT (24 h) was 40.8 IU/L, the AST (24 h) was 65 IU/L and the BUN (24 h) was 16.8 mg/dL. For the same compound, the CRE (24 h) was 0.5 mg/dL, the Ca (24 h) was 11 mg/dL and the Cl (24 h) was 106.8 meq/L. The DBIL (24 h) was 0.018 mg/dL, the GLC (24 h) was 185.4 mg/dL and the IP (24 h) was 7.1 mg/dL. The K (24 h) was 5 meq/L, the LDH (24 h) was 90.6 IU/L and the Na (24 h) was 139.8 meq/L. It also gave a PL (24 h) of 157.4 mg/dL, an RALB (24 h) of 3.8 g/dL and a TBIL (24 h) of 0.3 mg/dL. It also gave a TC (24 h) of 85.2 mg/dL, a TG (24 h) of 112 mg/dL and a TP (24 h) of 5.7 g/dL. For the same compound, the gamma-GTP (24 h) was 1.2 IU/L.

Reference: ChEMBL document CHEMBL3885861, “Open TG-GATES”
